In US20250388604A1, “Compounds and Their Use as PDE4 Activators” (Mironid Limited, priority 2022, published 2025):

How the values were obtained:
[1] = molecular target: T1, human PDE4D5 (long isoform) (Homo sapiens, UniProt Q08499); experiment: PDE assay, [3H]cAMP two-step radio-assay, PDE4D5 long isoform activation; type: biochemical; details: 100 μM test compound; mean % increase in counts over basal activity
T1 construct: Using Full-Length Human PDE4 Isoforms; Long Forms PDE4D5, PDE4C3, PDE4B1 and Short Form PDE4B2; made in house; cytosol fraction (100,000 g supernatant) of the cell lysate, not purified
Description: One suitable method of detecting whether or not a compound is capable of serving as an activator of a PDE4 long form is using a two-step radio-assay procedure described in Experiment 1. In summary, the method involves incubating a PDE4 long form with a test small molecule activator, together with [^3H]-labelled cAMP to assess alterations in the breakdown of cAMP to the 5′-adenosine monophosphate (5′-AMP) product. A sample of the reaction mixture from such an incubation is subsequently treated with snake venom 5′-nucleotidase to allow conversion of the nucleotide [^3H]-labelled 5′-AMP to the uncharged nucleoside [^3H]-labelled adenosine, which can be separated and quantified to assess PDE4 activity and the effect of the test compound (Thompson, W. J. and Appleman, M. M. Biochemistry 10: 311-316, 1971, with some modifications as described in: Marchmont, R. J. and Houslay, M. D. Biochem J. 187: 381-92, 1980). […]
The cell lysate containing recombinant PDE4D5 was transferred into a centrifuge tube and placed into an ultracentrifuge (BECKMAN COULTER) and spun at high speed (100,000 g) for 30 minutes at 4° C. The cytosol fraction was then collected and its protein amount determined using a BCA protein assay. […]

[2] = system: m-IMCD3 cells expressing PDE4 long forms; experiment: cAMP levels in PGE2-stimulated 3D m-IMCD3 cell culture media; type: cell-based; details: Mus musculus, mIMCD3; 3 μM test compound; compared to 100% for (DMSO + PGE2); read-out: cAMP level (% of PGE2-stimulated)
Description: HEK 293 and MDCK cells (Public Health England, Cell Culture Collections) were maintained in Dulbecco's Modified Eagle's Medium (DMEM) supplemented with 10% (v/v) fetal bovine serum (FBS) (Seralab), 2 mM L-glutamine and 100 U/mL penicillin streptomycin cocktail (ThermoFisher); termed complete media. Clonal HEK 293 cell lines were maintained in complete media supplemented with 0.6 mg/ml G418 (Enzo Life Sciences). Mouse inner medullary collecting duct (m-IMCD3) cells [American Type Culture Collection (ATCC)] were maintained in media consisting of DMEM/Hams F-12 50/50 Mix (DMEM F12; Corning) supplemented with penicillin streptomycin cocktail (100 U/mL) and FBS (10% v/v) (DMEM F12-10% FBS).
Activation of intracellular PDE4 long forms leads to a reduction of both intracellular cAMP and externalised cAMP (Omar et al., PNAS 116: 13320-13329, 2019). This reduction may be measured in the cell culture media supernatant of 3D cystic cell cultures, such as in the m-IMCD3 cell cyst suppression assay described in Experiment 3.
Following the completion of the m-IMCD3 cell cyst suppression assay (Experiment 3), the cAMP level in the assay media from individual or pooled assay wells was measured using a cAMP ELISA kit (Enzo Life Sciences) or a LANCE Ultra cAMP kit (PerkinElmer) according to the manufacturer's instructions.

[3] = molecular target: T2, human PDE4B2 (short isoform) (Homo sapiens, UniProt Q07343); experiment: PDE assay, [3H]cAMP two-step radio-assay, PDE4B2 short isoform activation; type: biochemical; details: 100 μM test compound; mean % increase in counts over basal activity
T2 construct: the full length human PDE4B2 short isoform; made in house

[4] = system: m-IMCD3 cells; experiment: Inhibition of PGE2-stimulated in vitro cyst formation in m-IMCD3 cells; type: cell-based, mouse; details: Mus musculus, mIMCD3, 144 h, 3 μM; mean cyst area, 100% for (DMSO + PGE2) and 0% for DMSO control; 6 days of culture; read-out: % Cyst area after incubation with 3 μM test compound
Method in brief: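 Mean cyst area after 6 days, expressed relative to DMSO+PGE2 (100%) and DMSO alone (0%), from z-stack images. Mouse m-IMCD3 spheroids grew in collagen I/Matrigel gels and received PGE2 (100 nM final) with test compound (0.1% DMSO) starting 18–24 h post-plating, media refreshed at day 2 or 3.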

T1 sequence (Q08499 1-745 isoform Q08499-6): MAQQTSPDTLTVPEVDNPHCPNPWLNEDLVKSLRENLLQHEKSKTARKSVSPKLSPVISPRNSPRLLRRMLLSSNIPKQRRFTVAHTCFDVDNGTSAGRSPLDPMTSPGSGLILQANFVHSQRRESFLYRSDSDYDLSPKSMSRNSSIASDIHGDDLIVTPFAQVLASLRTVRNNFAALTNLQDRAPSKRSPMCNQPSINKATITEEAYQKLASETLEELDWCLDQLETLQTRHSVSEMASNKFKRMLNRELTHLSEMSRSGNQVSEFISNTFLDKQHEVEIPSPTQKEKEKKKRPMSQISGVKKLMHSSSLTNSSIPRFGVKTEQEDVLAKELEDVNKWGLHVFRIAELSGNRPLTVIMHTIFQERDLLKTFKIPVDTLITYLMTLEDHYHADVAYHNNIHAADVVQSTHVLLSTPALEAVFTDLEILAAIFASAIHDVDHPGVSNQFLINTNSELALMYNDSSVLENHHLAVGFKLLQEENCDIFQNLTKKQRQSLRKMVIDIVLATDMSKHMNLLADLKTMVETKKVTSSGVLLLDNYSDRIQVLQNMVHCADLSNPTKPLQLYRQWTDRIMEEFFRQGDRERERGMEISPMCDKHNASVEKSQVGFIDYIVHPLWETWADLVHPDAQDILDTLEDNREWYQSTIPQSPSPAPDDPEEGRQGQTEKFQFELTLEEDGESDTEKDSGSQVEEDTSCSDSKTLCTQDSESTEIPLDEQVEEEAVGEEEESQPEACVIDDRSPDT
T2 sequence (Q07343 1-564 isoform Q07343-2): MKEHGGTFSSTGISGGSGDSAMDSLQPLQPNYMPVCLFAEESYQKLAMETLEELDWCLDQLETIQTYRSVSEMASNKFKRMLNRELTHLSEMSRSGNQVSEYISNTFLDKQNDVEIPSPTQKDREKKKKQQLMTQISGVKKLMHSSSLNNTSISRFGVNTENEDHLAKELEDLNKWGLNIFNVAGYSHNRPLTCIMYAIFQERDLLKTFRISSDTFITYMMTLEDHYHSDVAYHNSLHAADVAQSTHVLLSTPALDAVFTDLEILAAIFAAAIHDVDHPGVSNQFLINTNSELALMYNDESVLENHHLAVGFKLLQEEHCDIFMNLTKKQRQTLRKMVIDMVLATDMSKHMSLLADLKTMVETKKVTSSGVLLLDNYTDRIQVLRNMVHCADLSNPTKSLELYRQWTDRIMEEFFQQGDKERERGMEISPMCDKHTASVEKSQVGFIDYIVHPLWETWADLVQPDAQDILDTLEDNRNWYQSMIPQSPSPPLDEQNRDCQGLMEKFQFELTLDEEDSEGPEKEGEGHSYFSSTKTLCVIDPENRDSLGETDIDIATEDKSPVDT

% increase in PDE4B2 (short isoform) activity at 100 μM [3] | SMILES | % increase in PDE4D5 (long isoform) activity at 100 μM [1] | activity at 3 µM [2] | activity at 3 µM [4]
 | O=S(=O)(NC1CCCC1)N1CCc2nc(N3C4CCC3CNC4)sc2C1 [Example 108, 2-(3,8-diazabicyclo[3.2.1]octan-8-yl)-N-cyclopentyl-6,7-dihydrothiazolo[5,4-c]pyridine-5(4H)-sulfonamide] | 22% | 53% | 
−15% | O=C(CC1CCCC1)N1CCc2nc(N3CCN4CCC[C@H]4C3)sc2C1 [Example 271, (S)-2-cyclopentyl-1-(2-(hexahydropyrrolo[1,2-a]pyrazin-2(1H)-yl)-6,7-dihydrothiazolo[5,4-c]pyridin-5(4H)-yl)ethan-1-one] | 28% | 42% | 4%
 | O=S(=O)(Cc1ccccc1)N1CCc2nc(N3C4CCC3CNC4)sc2C1 [Example 288, 5-(benzylsulfonyl)-2-(3,8-diazabicyclo[3.2.1]octan-8-yl)-4,5,6,7-tetrahydrothiazolo[5,4-c]pyridine] |  | 34% | 7%
 | O=C(N[C@H]1CCOc2ccccc21)N1CCc2nc(N3C4CCC3CNC4)sc2C1 [Example 293, 2-(3,8-diazabicyclo[3.2.1]octan-8-yl)-N—((S)-chroman-4-yl)-6,7-dihydrothiazolo[5,4-c]pyridine-5(4H)-carboxamide] |  | 36% | 4%
 | CCN1CCN(c2nc3c(s2)CN(S(=O)(=O)Cc2ccc(F)cc2)CC3)CC1 [Example 304, 2-(4-ethylpiperazin-1-yl)-5-((4-fluorobenzyl)sulfonyl)-4,5,6,7-tetrahydrothiazolo[5,4-c]pyridine] |  | 47% | 13%
